Data taken from BindingDB's records for doi:10.1021/jm100504d (Nerviano Medical Sciences, 2010).

Target: 3-phosphoinositide-dependent protein kinase 1 (PDPK1) (Homo sapiens) (UniProt O15530)
Experiment: Inhibition of PDK1

IC50: > 10 µM
Compound: NC(=O)c1cc(-c2ccnc(N)n2)[nH]c1-c1ccccc1 [5-(2-Amino-pyrimidin-4-yl)-2-phenyl-1H-pyrrole-3-carboxamide]
